Molecules are shown by their SMILES.

Chain of Recombinant human glucagon receptor-expressing CHO cells (P47871 26-477): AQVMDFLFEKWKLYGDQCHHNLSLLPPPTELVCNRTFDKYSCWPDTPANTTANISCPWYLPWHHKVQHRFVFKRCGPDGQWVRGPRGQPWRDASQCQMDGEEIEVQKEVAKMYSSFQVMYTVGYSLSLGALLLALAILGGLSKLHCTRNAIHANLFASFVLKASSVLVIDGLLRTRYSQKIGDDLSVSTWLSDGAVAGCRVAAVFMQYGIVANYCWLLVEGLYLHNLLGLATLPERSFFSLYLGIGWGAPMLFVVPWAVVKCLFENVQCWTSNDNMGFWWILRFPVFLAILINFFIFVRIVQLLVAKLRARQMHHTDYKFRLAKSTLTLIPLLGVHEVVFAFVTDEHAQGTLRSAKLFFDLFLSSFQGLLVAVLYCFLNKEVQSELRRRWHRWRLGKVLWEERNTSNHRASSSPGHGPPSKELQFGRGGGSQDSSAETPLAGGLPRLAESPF

For the experiment, the target named is Recombinant human glucagon receptor-expressing CHO cells (Homo sapiens (Human), UniProt P47871). Description: Inhibition of Glucagon-Stimulated Intracellular cAMP Assay. The experiment is classed as cell-based. To be noted: stimulation with 300 pM glucagon; LANCE cAMP Kit. On the procedure:
Inhibition of Glucagon-Stimulated Intracellular cAMP Assay
Recombinant human glucagon receptor-expressing CHO cells were harvested using a non-enzymatic cell dissociation solution (GIBCO 2672), pelleted and resuspended in stimulation buffer (1×HBSS, 5 mM Hepes, 0.1% BSA, pH7.4 in the presence of proteinase inhibitor and phosphodiesterase inhibitors). The adenylate cyclase assay was constructed following the LANCE cAMP Kit (Perkin Elmer, AD0264) instructions. Briefly, cells were preincubated with anti-cAMP antibody and 12 points series diluted compound in stimulation buffer with a final concentration of 3% DMSO for 30 minutes prior to stimulation with 300 pM glucagon for 45 minutes. The reaction was stopped by incubating with the supplied detection buffer containing Europium chelate of the Eu-SA/Biotin-cAMP tracer for 20 hours. The assay was done as triplicates in a 384 well plate. Fluorescence at 665 nm was measured using PheraStar instruments. Basal activity (100% inhibition) was determined using the DMSO control and 0% inhibition was defined as cAMP stimulation produced by 300 pM glucagon. Standard cAMP concentrations were assayed concurrently for conversion of fluorescence signal to cAMP level. Data was analyzed using the software program Prism from GraphPad. IC50 values were calculated using non-linear regression analysis assuming single site competition.
With `CC(C)(C)CC[C@H](c1ccc(C(=O)NCCC(=O)O)cc1)N1C(=O)C(c2cc(Cl)cc(Cl)c2)=NC1(C)C` [Example 1], the IC50 was 0.8 µM.

Turning to `CC(C)(C)CC[C@H](c1ccc(C(=O)NCc2nn[nH]n2)cc1)N1C(=O)C(c2cc(Cl)cc(Cl)c2)=NC1(C)C` [Example 2], the IC50 was 3.7 µM. With `CC(C)(C)CC[C@H](c1ccc(C(=O)Nc2nn[nH]n2)cc1)N1C(=O)C(c2cc(Cl)cc(Cl)c2)=NC1(C)C` [Example 3] the figure was 6.2 µM. Turning to `CC(C)CC1(C)N=C(c2cc(Cl)cc(Cl)c2)C(=O)N1[C@H](CCC(C)(C)C)c1ccc(C(=O)NCc2nn[nH]n2)cc1` (some centres unmarked) [Example 4], the IC50 was 1.1 µM. Regarding `CC(C)CC1(C)N=C(c2cc(Cl)cc(Cl)c2)C(=O)N1[C@H](CCC(C)(C)C)c1ccc(C(=O)Nc2nn[nH]n2)cc1` (some centres unmarked) [Example 5], the IC50 was 5.1 µM. On to `CC(C)CC1(C)N=C(c2cccc(F)c2)C(=O)N1[C@H](CCC(C)(C)C)c1ccc(C(=O)NCc2nn[nH]n2)cc1` (some centres unmarked) [Example 6], for which the IC50 is 3.4 µM. With `CC(C)CC1(C)N=C(c2cc(Cl)cc(Cl)c2)C(=O)N1[C@H](CCC(C)(C)C)c1ccc(C(=O)NCCC(=O)O)cc1` (some centres unmarked) [Example 7] the figure was 0.6 µM; with `CC(C)(C)CC[C@H](c1ccc(C(=O)NCCC(=O)O)cc1)N1C(=O)C(c2cccc(F)c2)=NC1(C)C` [Example 8], 4.9 µM. With `CC(C)(C)CC[C@H](c1ccc(C(=O)Nc2nn[nH]n2)cc1)N1C(=O)C(c2cccc(F)c2)=NC1(C)C` [Example 9], the IC50 came out at 5.9 µM. The figure for `CC(C)(C)CC[C@H](c1ccc(C(=O)NCc2nn[nH]n2)cc1)N1C(=O)C(c2cccc(F)c2)=NC1(C)C` [Example 10] is 8.4 µM.

`CC1(C2CCCCC2)N=C(c2cc(Cl)cc(Cl)c2)C(=O)N1CCc1ccc(C(=O)NCCC(=O)O)cc1` (centres unmarked) [Example 11]: the concentration for half-maximal inhibition (IC50) was 1.7 µM.

Take `CC1(C)N=C(c2cc(Cl)cc(Cl)c2)C(=O)N1CCc1ccc(C(=O)NCCC(=O)O)cc1` [Example 12]: the 50% inhibitory concentration (IC50) amounted to 1.7 µM. With `CC(C)CC1(C)N=C(c2cc(Cl)cc(Cl)c2)C(=O)N1CCc1ccc(C(=O)NCCC(=O)O)cc1` (centres unmarked) [Example 13], the IC50 was found to be 4.2 µM.

Consider `CC1(C2CCCCC2)N=C(c2ccc(OC(F)(F)F)cc2)C(=O)N1CCc1ccc(C(=O)NCCC(=O)O)cc1` (centres unmarked) [Example 14], for which the IC50 turned out to be 5.1 µM. The figure for `CC1(C2CCCCC2)NC(c2cccc(C(F)(F)F)c2)C(=O)N1CCc1ccc(C(=O)NCCC(=O)O)cc1` (centres unmarked) [Example 15] is 3.5 µM. With `CC1(C)N=C(c2ccc(OC(F)(F)F)cc2)C(=O)N1CCc1ccc(C(=O)NCCC(=O)O)cc1` [Example 16] the figure was 8.3 µM; with `CC1(C)N=C(c2cc(Cl)cc(Cl)c2)C(=O)N1[C@@H](c1ccc(C(=O)NCCC(=O)O)cc1)C1CC1` [Example 17], 1.7 µM; with `CCCC[C@H](c1ccc(C(=O)NCCC(=O)O)cc1)N1C(=O)C(c2ccc(-c3cc(Cl)cc(Cl)c3)cc2)=NC1(C)C` [Example 18], 1 µM.

Regarding `CC(C)[C@H](c1ccc(C(=O)NCCC(=O)O)cc1)N1C(=O)C(c2cc(Cl)cc(Cl)c2)=NC1(C)C` [Example 19], the 50% inhibitory concentration (IC50) is 1.3 µM.

As to `CCCC[C@H](c1ccc(C(=O)NCCC(=O)O)cc1)N1C(=O)C(c2cc(Cl)cc(Cl)c2)=NC1(C)C` [Example 20], the IC50 stood at 2 µM.

The values are drawn from patent US8633231B2, “Substituted imidazolones, compositions containing such compounds and methods of use” (Merck Sharp & Dohme Corp., priority 2010, dated 2014).
